Experiment [1] relates to Cooperia curticei. The experiment is described as follows: Cooperia curticei (COOPCU) larval mortality assay. As to conditions: 120 h, after 5 days, read-out: activity (percentage of larval mortality); for mortality at 20 ppm: application rate 20 ppm. Here is the method: (§1) Solvent: dimethyl sulfoxide
(§2) To produce a suitable preparation of active compound, 10 mg of active compound are dissolved in 0.5 ml solvent, and the concentrate is diluted with “Ringer's solution” to the desired concentration.
Approximately 40 nematode larvae (Cooperia curticei) are transferred into a test tube containing the compound solution.
After 5 days percentage of larval mortality is recorded. 100% efficacy means all larvae are killed; 0% efficacy means no larvae are killed.

In experiment [2] the test system is Haemonchus contortus. The experiment is described as follows: Haemonchus contortus (HAEMCO) larval mortality assay. Particulars: 120 h; for mortality at 20 ppm: application rate 20 ppm, after 5 days, read-out: activity (percentage of larval mortality); for Emax at 0.8 ppm / Emax at 4 ppm / Emax at 20 ppm: comparative test, 5 dat, read-out: % Efficacy. As for the experimental part:
as §1, §2
Approximately 40 larvae of the red stomach worm (Haemonchus contortus) are transferred into a test tube containing compound solution.
After 5 days percentage of larval mortality are recorded. 100% efficacy means all larvae are killed, 0% efficacy means no larvae are killed.

The subject of experiment [3] is Nippostrongylus brasiliensis. The experiment is described as follows: Nippostrongylus brasiliensis (NIPOBR) assay, acetylcholine esterase readout. Particulars: 10 ppm (10 μg/ml), adult worms, read-out: activity (reduction of AChE compared to negative control). As for the experimental part: Adult Nippostrongylus brasiliensis were washed with saline buffer containing 100 U/ml penicillin, 0.1 mg/ml streptomycin and 2.5 μg/ml amphotericin B. Test compounds were dissolved in DMSO and worms were incubated in medium in a final concentration of 10 μg/ml (10 ppm). An aliquot of the medium was used to determine the acetylcholine esterase activity in comparison to a negative control. The principle of measuring acetylcholine esterase as readout for anthelmintic activity was described in Rapson et al (1986) and Rapson et al (1987).

In experiment [4] the test system is Meloidogyne incognita. The experiment is described as follows: Meloidogyne incognita (MELGIN) gall formation assay. Format: in vivo. As to conditions: 336 h, application rate 20 ppm, after 14 days, salad seedlings, read-out: nematicidal activity (percentage of gall formation). As for the experimental part: Solvent: 125.0 parts by weight of acetone
To produce a suitable preparation of active compound, 1 part by weight of active compound is mixed with the stated amount of solvent, and the concentrate is diluted with water to the desired concentration.
Vessels are filled with sand, a solution of the active ingredient, a suspension containing eggs and larvae of the southern root-knot nematode (Meloidogyne incognita) and salad seeds. The salad seeds germinate and the seedlings grow. Galls develop in the roots.
After 14 days the nematicidal activity is determined on the basis of the percentage of gall formation. 100% means no galls were found and 0% means the number of galls found on the roots of the treated plants was equal to that in untreated control plants.

One may read the mortality as the percentage killed. Turning to `O=C(NCCc1cccc(-c2ccc(OCC(F)(F)F)nc2)c1)c1ccccc1C(F)(F)F` [Example 1-1], the mortality at 20 ppm in experiment [1] and in experiment [2] was 80% throughout. Besides, in experiment [3], the inhibition at 10 ppm was at least 60%.
For `O=C(NCCc1cccc(-c2ccc(Cl)nc2)c1)c1ccccc1C(F)(F)F` [Example 1-9], the mortality at 20 ppm in experiment [1] was found to be 100%. Moreover, the inhibition at 10 ppm in experiment [3] was at least 60%.
Consider `O=C(NCCc1ccc(-c2cncc(Cl)c2)cc1)c1cccnc1C(F)(F)F` [Example 1-16], for which the mortality at 20 ppm was determined as 100% in experiment [1] and 80% in experiment [2]. Also, in experiment [4], the pest or weed control at 20 ppm was found to be 90%.
Consider `O=C(NCCc1ccc(-c2ccc(C(F)(F)F)nc2)cc1)c1cccnc1C(F)(F)F` [Example 1-19], for which the mortality at 20 ppm in experiment [1] worked out at 100%. In experiment [4], the pest or weed control at 20 ppm came to 90%.
For `O=C(NCCc1ccc(-c2cncc(F)c2)cc1)c1cccnc1C(F)(F)F` [Example 1-20], the values for the mortality at 20 ppm in experiment [1] and in experiment [2] were 100% and 80%, respectively. The pest or weed control at 20 ppm in experiment [4] was 90%.
On to `Cn1cc(-c2ccc(CCNC(=O)c3cccnc3C(F)(F)F)cc2)cn1` [Example 1-24], for which the mortality at 20 ppm in experiment [1] was found to be 90%. Also, the pest or weed control at 20 ppm in experiment [4] turned out to be 90%.
Take `O=C(NCCc1ccc(-c2cccnc2)cc1Cl)c1ccccc1C(F)(F)F` [Example 1-33]: the mortality at 20 ppm in experiment [1] and in experiment [2] was 100% in each case. The inhibition at 10 ppm in experiment [3] is at least 60%.
For `O=C(NCCc1ccc(-c2ccccn2)cc1Cl)c1ccccc1C(F)(F)F` [Example 1-39], the mortality at 20 ppm in experiment [1] and in experiment [2] was 100% throughout. Further, the pest or weed control at 20 ppm in experiment [4] turned out to be 100%.
Turning to `Cc1ncccc1-c1ccc(CCNC(=O)c2ccccc2C(F)(F)F)c(Cl)c1` [Example 1-42], the mortality at 20 ppm in experiment [1] and in experiment [2] was 100% throughout. The pest or weed control at 20 ppm in experiment [4] amounted to 90%.
As to `O=C(NCCc1ccc(-c2cncc(Cl)c2)cc1Cl)c1ccccc1C(F)(F)F` [Example 1-45, N-{2-[2-chloro-4-(5-chloropyridin-3-yl)phenyl]ethyl}-2-(trifluoromethyl)benzamide], the mortality at 20 ppm in experiment [1] came to 100%. Further, in experiment [2], the mortality at 20 ppm came to 100%, the Emax at 0.8 ppm worked out at 100%, the Emax at 4 ppm came to 100% and the Emax at 20 ppm worked out at 100%. Further, the inhibition at 10 ppm in experiment [3] is at least 60%.
For `Cn1cc(-c2ccc(CCNC(=O)c3ccccc3C(F)(F)F)c(Cl)c2)cn1` [Example 1-47], in experiment [1], the mortality at 20 ppm is 100%. The pest or weed control at 20 ppm in experiment [4] turned out to be 100%. In addition, in experiment [2], the mortality at 20 ppm was 100%, the Emax at 0.8 ppm was 80%, the Emax at 4 ppm was 100% and the Emax at 20 ppm amounted to 100%.
As to `O=C(NCCc1ccc(-c2ccc(Cl)nc2Cl)cc1Cl)c1ccccc1C(F)(F)F` [Example 1-49], the mortality at 20 ppm in experiment [1] is 100%; in experiment [2], 90%. Moreover, the inhibition at 10 ppm in experiment [3] was at least 60%.
Regarding `O=C(NCCc1ccc(-c2cncc(Cl)c2)cc1)c1ccccc1C(F)(F)F` [Example 1-53], the mortality at 20 ppm in experiment [1] and in experiment [2] was 100% in each case. The inhibition at 10 ppm in experiment [3] is at least 60%.
Take `O=C(NCCc1ccc(-c2ccc(Cl)nc2)cc1Cl)c1ccccc1C(F)(F)F` [Example 1-66]: the mortality at 20 ppm in experiment [1] and in experiment [2] was 100% in each case. In addition, the pest or weed control at 20 ppm in experiment [4] was found to be 90%.
Regarding `O=C(NCC(F)c1ccc(-c2cccnc2Cl)cc1Cl)c1ccccc1C(F)(F)F` (stereo not shown) [Example 1-75], the mortality at 20 ppm in experiment [1] and in experiment [2] was 100% each time. In experiment [3], the inhibition at 10 ppm was at least 60%.
As for `O=C(NCC(F)c1ccc(-c2cccnc2Cl)cc1Cl)c1cccnc1C(F)(F)F` (stereo not shown) [Example 1-80], the mortality at 20 ppm in experiment [1] and in experiment [2] was 100% each time. Further, the pest or weed control at 20 ppm in experiment [4] amounted to 90%.
Take `O=C(NCC(F)c1ccc(-c2ccnc(F)c2)cc1Cl)c1cccnc1C(F)(F)F` (stereo not shown) [Example 1-81]: the mortality at 20 ppm in experiment [1] and in experiment [2] was 100% each time. For the same molecule, in experiment [4], the pest or weed control at 20 ppm is 100%.
As to `O=C(NCC(F)c1ccc(-c2ccc(Cl)nc2)cc1Cl)c1nccnc1C(F)(F)F` (stereo not shown) [Example 1-85], the mortality at 20 ppm in experiment [1] and in experiment [2] was 100% throughout. Also, the pest or weed control at 20 ppm in experiment [4] was found to be 100%.
With `O=C(NCC(F)c1ccc(-c2ccc(Cl)nc2)cc1Cl)c1cccnc1C(F)(F)F` (stereo not shown) [Example 1-86], the mortality at 20 ppm in experiment [1] and in experiment [2] was 100% in each case. Besides, the pest or weed control at 20 ppm in experiment [4] is 100%.
`COc1ccc(-c2ccc(C(F)(F)CNC(=O)c3ccccc3C(F)(F)F)c(Cl)c2)cn1` [Example 1-90]: the mortality at 20 ppm in experiment [1] and in experiment [2] was 100% throughout. In experiment [3], the inhibition at 10 ppm was at least 60%.
For `O=C(NCC(F)(F)c1ccc(-c2cc(Cl)nc(Cl)c2)cc1Cl)c1ccccc1C(F)(F)F` [Example 1-92], the mortality at 20 ppm in experiment [1] and in experiment [2] was 100% throughout. In experiment [3], the inhibition at 10 ppm is at least 60%.
As to `O=C(NCC(F)(F)c1ccc(-c2ccc(C(F)(F)F)nc2)cc1Cl)c1ccccc1C(F)(F)F` [Example 1-94], the mortality at 20 ppm in experiment [1] and in experiment [2] was 100% in each case. Moreover, the pest or weed control at 20 ppm in experiment [4] is 100%.
On to `O=C(NCC(F)(F)c1ccc(-c2cncc(F)c2)cc1Cl)c1ccccc1C(F)(F)F` [Example 1-96], for which the mortality at 20 ppm in experiment [1] and in experiment [2] was 100% throughout. Further, the inhibition at 10 ppm in experiment [3] was at least 60%.
Regarding `O=C(NCC(F)(F)c1ccc(-c2cncc(Cl)c2)cc1Cl)c1ccccc1C(F)(F)F` [Example 1-97], the mortality at 20 ppm in experiment [1] and in experiment [2] was 100% throughout. Besides, the inhibition at 10 ppm in experiment [3] was at least 60%.
Regarding `CC(F)(CNC(=O)c1cccnc1C(F)(F)F)c1ccc(-c2cncc(F)c2)cc1Cl` (stereo not shown) [Example 1-98], the mortality at 20 ppm in experiment [1] and in experiment [2] was 100% throughout. The inhibition at 10 ppm in experiment [3] was at least 60%.
Consider `O=C(NCC(F)(F)c1ccc(-c2ccc(F)nc2)cc1Cl)c1cccnc1C(F)(F)F` [Example 1-104], for which the mortality at 4 ppm in experiment [1] (application rate 4 ppm) was 100%. Besides, the pest or weed control at 20 ppm in experiment [4] turned out to be 100%. Moreover, the mortality at 20 ppm in experiment [2] is 90%.
For the molecule `O=C(NCC(F)(F)c1ccc(-c2cncc(Cl)c2)cc1F)c1ccccc1C(F)(F)F` [Example 1-107], the mortality at 20 ppm in experiment [1] and in experiment [2] was 100% in each case. The inhibition at 10 ppm in experiment [3] is at least 60%.
With `O=C(NCC(F)(F)c1ccc(-c2cncc(F)c2)cc1F)c1ccccc1C(F)(F)F` [Example 1-111], the mortality at 20 ppm in experiment [1] and in experiment [2] was 100% each time. For the same molecule, the inhibition at 10 ppm in experiment [3] was at least 60%.
Regarding `O=C(NCC(F)(F)c1ccc(-c2cncc(Cl)c2)cc1C(F)(F)F)c1ccccc1C(F)(F)F` [Example 1-120], the mortality at 20 ppm in experiment [1] and in experiment [2] was 100% each time. The pest or weed control at 20 ppm in experiment [4] worked out at 100%.
In the case of `O=C(NCC(F)(F)c1ccc(-c2ccc(Cl)nc2)cc1C(F)(F)F)c1ccccc1C(F)(F)F` [Example 1-126], the mortality at 20 ppm in experiment [1] and in experiment [2] was 100% throughout. In addition, the pest or weed control at 20 ppm in experiment [4] stood at 90%.
Take `O=C(NCC(F)(F)c1ccc(-c2ccc(F)nc2)cc1C(F)(F)F)c1ccccc1C(F)(F)F` [Example 1-128]: the mortality at 20 ppm in experiment [1] and in experiment [2] was 100% throughout. Also, the pest or weed control at 20 ppm in experiment [4] stood at 100%.
As for `CC(F)(CNC(=O)c1cccnc1C(F)(F)F)c1ccc(-c2ccc(F)nc2)cc1Cl` (stereo not shown) [Example 1-129], the pest or weed control at 20 ppm in experiment [4] amounted to 100%.
As for `CC(F)(CNC(=O)c1ccccc1C(F)(F)F)c1ccc(-c2ccc(F)nc2)cc1Cl` (stereo not shown) [Example 1-130, N-{2-[2-chloro-4-(6-fluoropyridin-3-yl)phenyl]-2-fluoropropyl}-2-(trifluoromethyl) benzamide], the pest or weed control at 20 ppm in experiment [4] came to 100%.
Take `Cc1cc(-c2ccc(F)nc2)ccc1C(F)(F)CNC(=O)c1ccccc1C(F)(F)F` [Example 1-136]: the pest or weed control at 20 ppm in experiment [4] turned out to be 90%.
Turning to `O=C(NCC(F)(F)c1ccc(-c2ccc(F)nc2)cc1C(F)(F)F)c1cccnc1C(F)(F)F` [Example 1-140], the pest or weed control at 20 ppm in experiment [4] turned out to be 90%.

(Values after patent publication US20170044104A1, “NEW PESTICIDAL COMPOUNDS AND USES” (BAYER CROPSCIENCE AG, priority 2013, published 2017).)
